The results in this text go back to US8119681B2, “2-[1-phenyl-5-hydroxy or methoxy-4alpha-methyl-hexahydrocyclopenta [ƒ]indazole-5-YL]ethyl phenyl derivatives as glucocorticoid receptor ligands” (Merck Sharp & Dohme Corp., priority 2006, dated 2012).

The structures appear in SMILES notation.

The first test concerns the target T1, glucocorticoid receptor (GR) (Homo sapiens, UniProt P04150).
T1 construct: endogenous in cells; host or cells: HeLa (ATCC) cell lysate supernatant
T1 sequence (P04150 1-777): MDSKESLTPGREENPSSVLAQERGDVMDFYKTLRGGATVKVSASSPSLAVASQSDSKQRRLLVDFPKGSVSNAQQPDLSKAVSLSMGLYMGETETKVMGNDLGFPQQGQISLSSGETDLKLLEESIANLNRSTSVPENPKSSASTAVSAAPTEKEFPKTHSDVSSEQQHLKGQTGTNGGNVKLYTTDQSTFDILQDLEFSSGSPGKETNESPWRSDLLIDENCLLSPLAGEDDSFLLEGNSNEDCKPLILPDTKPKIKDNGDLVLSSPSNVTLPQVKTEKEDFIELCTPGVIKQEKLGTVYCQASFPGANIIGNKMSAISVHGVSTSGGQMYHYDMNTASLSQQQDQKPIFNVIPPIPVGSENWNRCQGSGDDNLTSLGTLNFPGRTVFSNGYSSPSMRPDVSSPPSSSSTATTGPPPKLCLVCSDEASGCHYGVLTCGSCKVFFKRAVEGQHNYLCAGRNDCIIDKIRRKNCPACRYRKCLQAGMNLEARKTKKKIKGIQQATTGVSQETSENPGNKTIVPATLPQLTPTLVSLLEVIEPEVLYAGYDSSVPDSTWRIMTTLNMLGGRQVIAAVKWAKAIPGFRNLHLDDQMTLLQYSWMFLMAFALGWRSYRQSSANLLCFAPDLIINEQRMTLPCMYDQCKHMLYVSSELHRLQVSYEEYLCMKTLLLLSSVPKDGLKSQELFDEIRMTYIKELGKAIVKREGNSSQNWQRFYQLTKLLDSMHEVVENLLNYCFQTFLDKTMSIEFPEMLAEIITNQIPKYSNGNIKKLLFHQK
Put plainly: Ligand binding assay (GR BIND), 3H-dexamethasone displacement, HeLa cell lysate. Particulars: Table 1; HeLa cell lysate, 3H-DEX. The method, then:
Binding Buffer: TEGM (10 mM Tris-HCl, 1 mM EDTA, 10% glycerol, 1 mM beta-mercaptoethanol, 10 mM Sodium Molybdate, pH 7.2)
50% HAP Slurry: Calbiochem Hydroxylapatite, Fast Flow, in 10 mM Tris, pH 8.0 and 1 mM EDTA.
Wash Buffer: 40 mM Tris, pH7.5, 100 mM KCl, 1 mM EDTA and 1 mM EGTA.
Dexmethasone-methyl-^3H, (DEX*); (Amersham cat# TRK645)
Dexamethasone (DEX) (Sigma, cat# D1756):
Phenol red-free Trypsin-EDTA is diluted in the same PBS 1:10. The cell layers are rinsed with 1× Trypsin, extra Trypsin is poured out, and the cell layers are incubated at 37° C. for ˜2 min. The flask is tapped and checked for signs of cell detachment. Once the cells begin to slide off the flask, the complete media is added. The cells are counted at this point, then diluted to the appropriate concentration and split into flasks or dishes for further culturing (Usually 1:3 to 1:6 dilution).
Preparation of Hela Cell Lysate
The cell pellet is washed twice with TEGM (10 mM Tris-HCl, 1 mM EDTA, 10% glycerol, 1 mM beta-mercaptoethanol, 10 mM Sodium Molybdate, pH 7.2). After the final wash, the cells are resuspended in TEGM at a concentration of 10^7 cells/mL. The cell suspension is snap frozen in liquid nitrogen or ethanol/dry ice bath and transferred to −80° C. freezer on dry ice. Before setting up the binding assay, the frozen samples are left on ice-water to just thaw (˜1 hr). Then the samples are centrifuged at 12,500 g to 20,000 g for 30 min at 4° C. The supernatant is used to set-up assay right away. If using 50 μL of supernatant, the test compound can be prepared in 50 μL of the TEGM buffer.
Procedure for Multiple Compound Screening
1×TEGM buffer is prepared, and the isotope-containing assay mixture is prepared in the following order: EtOH (2% final concentration in reaction), 3H-DEX (Amersham Biosciences) and 1×TEGM. [e.g. For 100 samples, 200 μL (100×2) of EtOH+4.25 μL of 1:10 ^3H-Dex stock+2300 μL (100×23) 1×TEGM]. The compound is serially diluted, e.g., if starting final conc. is 1 μM, and the compound is in 25 μL of solution, for duplicate samples, 75 μL of 4×1 μM solution is made and 3 μL of 100 μM is added to 72 μL of buffer, and 1:5 serial dilution.
25 μL of ^3H-DEX (6 nM) trace and 25 μL compound solution are first mixed together, followed by addition of 50 μL receptor solution. The reaction is gently mixed, spun briefly at about 200 rpm and incubated at 4° C. overnight. 100 μL of 50% HAP slurry is prepared and added to the incubated reaction which is then vortexed and incubated on ice for 5 to 10 minutes. The reaction mixture is vortexed twice more to resuspend HAP while incubating reaction. The samples in 96-well format are then washed in wash buffer using The FilterMate™ Universal Harvester plate washer (Packard). The washing process transfers HAP pellet containing ligand-bound expressed receptor to Unifilter-96 GF/B filter plate (Packard). The HAP pellet on the filter plate is incubated with 50 μL of MICROSCINT (Packard) scintillant for 30 minutes before being counted on the TopCount microscintillation counter (Packard). IC50s are calculated using DEX as a reference.
With `CC(O)(C(N)=O)c1ccccc1CC[C@]1(O)CCC2=Cc3c(cnn3-c3ccc(F)cc3)C[C@@]21C` (single isomer, unassigned) [Example 150], affinity was put at a Ki of 11 nM. Regarding `CC(C(N)=O)c1ccccc1CC[C@]1(O)CCC2=Cc3c(cnn3-c3ccc(F)cc3)C[C@@]21C` (single isomer, unassigned) [Example 196], the Ki (usually the equilibrium dissociation constant of an inhibitor or competing ligand from its target) was 1.8 nM. This Ki lies about 6.1-fold lower than the previous one. In turn, `C[C@]12Cc3cnn(-c4ccc(F)cc4)c3C=C1CC[C@@]2(O)CCc1ccccc1C(F)C(N)=O` (single isomer, unassigned) [Example 198] displayed a Ki of 2.44 nM. The Ki values of the last two compounds are within 1.5-fold of each other.

`CCNC(=O)c1ccccc1CC[C@]1(O)CCC2=Cc3c(cnn3-c3ccc(F)cc3)C[C@@]21C` [Example 2, N-ethyl-2-{2-[(4αS,5R)-1-(4-fluorophenyl)-5-hydroxy-4α-methyl-1,4,4α,5,6,7-hexahydrocyclopenta[f]indazol-5-yl]ethyl}benzamide] showed a Ki of 2.08 nM. Still for that read-out and setting: the same measure for `C[C@]12Cc3cnn(-c4ccc(F)cc4)c3C=C1CC[C@@]2(O)CCc1ccccc1CNS(=O)(=O)C1CC1` [Example 5, N-(2-{2-[(4αS,5R)-1-(4-fluorophenyl)-5-hydroxy-4α-methyl-1,4,4α,5,6,7-hexahydrocyclopenta[f]indazol-5-yl]ethyl}benzyl)cyclopropanesulfonamide]: 0.44 nM.

In turn, `C[C@]12Cc3cnn(-c4ccc(F)cc4)c3C=C1CC[C@@]2(O)CCc1ccccc1N1CCC1=O` [Example 11, 1-(2-{2-[(4αS,5R)-1-(4-fluorophenyl)-5-hydroxy-4α-methyl-1,4,4α,5,6,7-hexahydrocyclopenta[f]indazol-5-yl]ethyl}phenyl)azetidin-2-one] returned a Ki of 2.37 nM. `CC(=O)Nc1ccccc1CC[C@]1(O)CCC2=Cc3c(cnn3-c3ccc(F)cc3)C[C@@]21C` [Example 14, N-(2-{2-[(4αS,5R)-1-(4-fluorophenyl)-5-hydroxy-4α-methyl-1,4,4α,5,6,7-hexahydrocyclopenta[f]indazol-5-yl]ethyl}phenyl)acetamide] showed a Ki of 6.38 nM. Turning to `C[C@]12Cc3cnn(-c4ccc(F)cc4)c3C=C1CC[C@@]2(O)CCc1ccccc1NS(=O)(=O)C1CC1` [Example 15, N-(2-{2-[(4αS,5R)-1-(4-fluorophenyl)-5-hydroxy-4α-methyl-1,4,4α,5,6,7-hexahydrocyclopenta[f]indazol-5-yl]ethyl}phenyl)cyclopropanesulfonamide], the affinity, expressed as Ki, was 1.17 nM. `C[C@]12Cc3cnn(-c4ccc(F)cc4)c3C=C1CC[C@@]2(O)CCc1ccccc1S(C)(=O)=O` [Example 19, (4αS,5R)-1-(4-fluorophenyl)-4α-methyl-5-{2-[2-(methylsulfonyl)phenyl]ethyl}-1,4,4α,5,6,7-hexahydrocyclopenta[f]indazol-5-ol]: the Ki was found to be 1.13 nM. Turning to `CNC(=O)Cc1ccccc1CC[C@]1(O)CCC2=Cc3c(cnn3-c3ccc(F)cc3)C[C@@]21C` [Example 23, 2-(2-{2-[(4αS,5R)-1-(4-fluorophenyl)-5-hydroxy-4α-methyl-1,4,4α,5,6,7-hexahydrocyclopenta[f]indazol-5-yl]ethyl}phenyl)-N-methylacetamide], the Ki turned out to be 5.09 nM. As to `COC(=O)C1(NC(=O)c2ccccc2CC[C@]2(O)CCC3=Cc4c(cnn4-c4ccc(F)cc4)C[C@@]32C)CC1` [Example 26, methyl 1-[(2-{2-[(4αS,5R)-1-(4-fluorophenyl)-5-hydroxy-4α-methyl-1,4,4α,5,6,7-hexahydrocyclopenta[f]indazol-5-yl]ethyl}benzoyl)amino]cyclopropanecarboxylate], the inhibitory constant (Ki) came out at 1.37 nM.

On to `CC1(NC(=O)c2ccccc2CC[C@]2(O)CCC3=Cc4c(cnn4-c4ccc(F)cc4)C[C@@]32C)CC1` [Example 28, 2-{2-[(4αS,5R)-1-(4-fluorophenyl)-5-hydroxy-4α-methyl-1,4,4α,5,6,7-hexahydrocyclopenta[f]indazol-5-yl]ethyl}-N-(1-methylcyclopropyl)benzamide], for which affinity was put at a Ki of 3.55 nM. In the case of `CC(C)CNC(=O)c1ccccc1CC[C@]1(O)CCC2=Cc3c(cnn3-c3ccc(F)cc3)C[C@@]21C` [Example 29, 2-{2-[(4αS,5R)-1-(4-fluorophenyl)-5-hydroxy-4α-methyl-1,4,4α,5,6,7-hexahydrocyclopenta[f]indazol-5-yl]ethyl}-N-isobutylbenzamide], the Ki is 1.14 nM. `CCCNC(=O)c1ccccc1CC[C@]1(O)CCC2=Cc3c(cnn3-c3ccc(F)cc3)C[C@@]21C` [Example 30, 2-{2-[(4αS,5R)-1-(4-fluorophenyl)-5-hydroxy-4α-methyl-1,4,4α,5,6,7-hexahydrocyclopenta[f]indazol-5-yl]ethyl}-N-propylbenzamide] had an inhibition constant Ki of 1.52 nM. In turn, `CC(CNC(=O)c1ccccc1CC[C@]1(O)CCC2=Cc3c(cnn3-c3ccc(F)cc3)C[C@@]21C)C(F)(F)F` (stereo partly drawn) [Example 31, 2-{2-[(4αS,5R)-1-(4-fluorophenyl)-5-hydroxy-4α-methyl-1,4,4α,5,6,7-hexahydrocyclopenta[f]indazol-5-yl]ethyl}-N-(3,3,3-trifluoro-2-methylpropyl)benzamide] yielded a Ki of 0.9 nM. `C=C(C)CNC(=O)c1ccccc1CC[C@]1(O)CCC2=Cc3c(cnn3-c3ccc(F)cc3)C[C@@]21C` [Example 32, 2-{2-[(4αS,5R)-1-(4-fluorophenyl)-5-hydroxy-4α-methyl-1,4,4α,5,6,7-hexahydrocyclopenta[f]indazol-5-yl]ethyl}-N-(2-methylprop-2-en-1-yl)benzamide] yielded a Ki of 0.49 nM. This Ki lies about 1.8-fold lower than the previous one. Turning to `C=CCNC(=O)c1ccccc1CC[C@]1(O)CCC2=Cc3c(cnn3-c3ccc(F)cc3)C[C@@]21C` [Example 33, N-allyl-2-{2-[(4αS,5R)-1-(4-fluorophenyl)-5-hydroxy-4α-methyl-1,4,4α,5,6,7-hexahydrocyclopenta[f]indazol-5-yl]ethyl}benzamide], the Ki was determined as 1.13 nM.

For `CC1(NC(=O)c2ccccc2CC[C@]2(O)CCC3=Cc4c(cnn4-c4ccccc4)C[C@@]32C)CC1` [Example 34, 2-{2-[(4αS,5R)-5-hydroxy-4α-methyl-1-phenyl-1,4,4α,5,6,7-hexahydrocyclopenta[f]indazol-5-yl]ethyl}-N-(1-methylcyclopropyl)benzamide], the Ki was 5.29 nM.

The same test, now with this note: Table 2; prior-art comparison compounds.
Take `C[C@]12Cc3cnn(-c4ccc(F)cc4)c3C=C1CC[C@@]2(O)CCc1ccccc1` [Example 2 WO 2004/075840 A2, reference compound]: the Ki amounted to 5.24 nM. This lies in the single-digit nanomolar range. The compound `C[C@]12Cc3cnn(-c4ccc(F)cc4)c3C=C1CCC[C@@H]2[C@@H](O)Cc1ccccc1` [Example 22 WO 03/086294 A2, reference compound] showed a Ki of 1.27 nM.
